Measured values from publication PMC11449324, “Functional comparison of human and murine equilibrative nucleobase transporter 1” (PLOS ONE, 2024).

Legend:
HEK293-mslc43a3 cells = assay: MTT cell viability assay, HEK293-mslc43a3; format: cell-based, human; conditions: for EC50: Homo sapiens, first-phase EC50 where biphasic
Protocol: (§1) Transfected-HEK293, MOLT-4, and L1210 cells were seeded into 24-well plates at a density of 1.1x10^5 cells per well in complete culture medium. […] Medium containing no cells was used to determine spontaneous MTT reduction (background). In transfected-HEK293 cells, media was removed via a vacuum-powered aspirator and replaced with 150 μL of Dulbecco’s phosphate buffered saline (DPBS—137 mM NaCl, 2.7 mM KCl, 6.3 mM Na2HPO4, 1.5 mM KH2PO4, 0.5 mM MgCl2, 0.9 mM CaCl2, pH 7.4) containing MTT (1 mg/mL) for 90 minutes at 37°C. In MOLT-4 and L1210, cell suspension was transferred to 1.5 mL microcentrifuge tubes and centrifuged for 10 minutes at 3000 rcf. Following centrifugation, media was removed via gentle pipetting and replaced with 150 μL of DPBS containing MTT (1 mg/mL) for 90 minutes at 37°C. Microcentrifuge tubes were centrifuged again for 15 minutes at 23,500 rcf, and then DPBS containing MTT was removed via a vacuum-powered aspirator. The resultant formazan crystals were solubilized in 500 μL of DMSO and transferred to a 96-well plate in 200 μL duplicates. Absorbance was measured at 570 nm, in a SpectraMax® i3x Multi-Mode Detection Platform (Molecular Devices, San Jose, CA). After background subtraction, % cell viability was calculated as the ratio of absorbance in the presence of test compound to that measured with vehicle alone (X 100).

HEK293-EV cells = assay: MTT cell viability assay, HEK293-EV; format: cell-based, human; conditions: 48 h; for EC50: Homo sapiens, first-phase EC50 where biphasic
Protocol: as §1

HEK293-hSLC43A3 cells = assay: MTT cell viability assay, HEK293-hSLC43A3; format: cell-based, human; conditions: for EC50: Homo sapiens, first-phase EC50 where biphasic
Protocol: as §1

ENBT1 = conditions: previous findings ref 14; cited from earlier work
[1] = substrate: Sc1ncnc2nc[nH]c12; assay: cells, lysate or membranes; conditions: pH 7.4
[2] = substrate: Nc1ncnc2nc[nH]c12; assay: Radiolabelled substrate uptake (oil-stop, 2 s) in HEK293-hSLC43A3 cells; format: cell-based, human; conditions: other: HEK293-hSLC43A3 minus HEK293-EV, 2 seconds, room temperature, 10 μM dipyridamole; pH 7.4
Protocol: (§2) Harvested cells were suspended in nominally sodium-free N-methyl-D-glucamine (NMG) buffer (140 mM NMG, 5 mM KCl, 4.2 mM KHCO3, 0.36 mM K2HPO4, 0.44 mM KH2PO4, 0.5 mM MgCl2, 1.3 mM CaCl2, 10 mM HEPES, pH 7.4), to minimize potential contribution of sodium-dependent concentrative nucleoside transporter-mediated uptake. Additionally, cells were incubated for 15 minutes at room temperature with 10 μM dipyridamole (DY), an equilibrative nucleoside transporter (ENT) inhibitor, to block equilibrative nucleoside transporter–mediated uptake. The substrate uptake assay was initiated by adding 250 μL cell suspension to 250 μL [^3H] labeled substrate, layered over 21:4 silicone:mineral oil (200 μL) in 1.5 mL microcentrifuge tubes (conducted at room temperature). The uptake reaction was terminated after 2 seconds by centrifugation of the cells through the oil layer at ~10,000 g. […] The resulting cell pellet was digested in 250 μL 1 M NaOH overnight (~16 hours), with 220 μL aliquots of digested cells assessed for radioactive content using standard liquid scintillation counting techniques in a Beckman Coulter LS6500 scintillation system (Brea, CA).
(§3) In transfected-HEK293 cell lines, total uptake was defined as uptake of radiolabeled substrate in cells overexpressing recombinant hENBT1 or mENBT1. […] ENBT1-mediated uptake was calculated as total uptake minus the non-mediated uptake. […]

[3] = substrate: Nc1ncnc2nc[nH]c12; assay: Radiolabelled substrate uptake (oil-stop, 2 s) in HEK293-mslc43a3 cells; format: cell-based, mouse; conditions: other: HEK293-mslc43a3 minus HEK293-EV, 2 seconds, room temperature, 10 μM dipyridamole; pH 7.4
Protocol: as §2, §3

[4] = other: HEK293-hSLC43A3 minus HEK293-EV, 2 seconds, room temperature, 10 μM dipyridamole
[5] = other: HEK293-mslc43a3 minus HEK293-EV, 2 seconds, room temperature, 10 μM dipyridamole

Molecule: Nc1nc2nc[nH]c2c(=S)[nH]1 [6-TG, 6-thioguanine]
- shift in EC50 (increased sensitivity) relative to HEK293-EV cells (HEK293-mslc43a3 cells; HEK293-mslc43a3 vs HEK293-EV): 5 fold
- EC50 (HEK293-mslc43a3 cells; HEK293-mslc43a3, 48 h, MTT): 3.4 ± 1.1 µM
- EC50 (HEK293-EV cells): 16 ± 4.3 µM
- shift in EC50 (increased sensitivity) relative to HEK293-EV cells (HEK293-hSLC43A3 cells; HEK293-hSLC43A3 vs HEK293-EV): 5 fold
- EC50 (HEK293-hSLC43A3 cells; HEK293-hSLC43A3, 48 h, MTT): 3.4 ± 0.9 µM
- effect on 6-MP uptake by ENBT1 (ENBT1): competitively inhibits

Molecule: CSc1ncnc2nc[nH]c12 [6-MeMP, 6-Methylmercaptopurine]
- EC50 (HEK293-mslc43a3 cells; HEK293-mslc43a3, 48 h, MTT): 42 ± 6 µM
- EC50 (HEK293-EV cells): 45 ± 7 µM
- EC50 (HEK293-hSLC43A3 cells; HEK293-hSLC43A3, 48 h, MTT): 79 ± 2 µM
- effect on 6-MP uptake by ENBT1 (ENBT1): inhibited

Molecule: O=c1[nH]c(=S)c2[nH]c(=O)[nH]c2[nH]1 [6-TU, 6-Thiouric acid]
- effect on cell viability (HEK293-mslc43a3 cells; HEK293-mslc43a3, 48 h, MTT): minimal effect
- effect on cell viability (HEK293-EV cells): minimal effect
- effect on cell viability (HEK293-hSLC43A3 cells; HEK293-hSLC43A3, 48 h, MTT): minimal effect

B1: hENBT1 (SLC43A3-encoded human ENBT1) (Homo sapiens) (protein)
chain: MAGQGLPLHVATLLTGLLECLGFAGVLFGWPSLVFVFKNEDYFKDLCGPDAGPIGNATGQADCKAQDERFSLIFTLGSFMNNFMTFPTGYIFDRFKTTVARLIAIFFYTTATLIIAFTSAGSAVLLFLAMPMLTIGGILFLITNLQIGNLFGQHRSTIITLYNGAFDSSSAVFLIIKLLYEKGISLRASFIFISVCSTWHVARTFLLMPRGHIPYPLPPNYSYGLCPGNGTTKEEKETAEHENRELQSKEFLSAKEETPGAGQKQELRSFWSYAFSRRFAWHLVWLSVIQLWHYLFIGTLNSLLTNMAGGDMARVSTYTNAFAFTQFGVLCAPWNGLLMDRLKQKYQKEARKTGSSTLAVALCSTVPSLALTSLLCLGFALCASVPILPLQYLTFILQVISRSFLYGSNAAFLTLAFPSEHFGKLFGLVMALSAVVSLLQFPIFTLIKGSLQNDPFYVNVMFMLAILLTFFHPFLVYRECRTWKESPSAIA
notes: Oligonucleotides corresponding to the coding region of SLC43A3 (NM_001278201) or slc43a3 (NM_021398); expressed in transfected cells; HEK293-hSLC43A3
- Km [1, 4]: 269 ± 67 µM
- Vmax [1, 4]: 121 ± 16 pmol/µL/s
- Km [2]: 93 ± 24 µM
- Vmax [2]: 56 ± 6 pmol/µL/s

B2: endogenous ENBT1 expressed in MOLT-4 cells (Homo sapiens) (protein)
chain: MAGQGLPLHVATLLTGLLECLGFAGVLFGWPSLVFVFKNEDYFKDLCGPDAGPIGNATGQADCKAQDERFSLIFTLGSFMNNFMTFPTGYIFDRFKTTVARLIAIFFYTTATLIIAFTSAGSAVLLFLAMPMLTIGGILFLITNLQIGNLFGQHRSTIITLYNGAFDSSSAVFLIIKLLYEKGISLRASFIFISVCSTWHVARTFLLMPRGHIPYPLPPNYSYGLCPGNGTTKEEKETAEHENRELQSKEFLSAKEETPGAGQKQELRSFWSYAFSRRFAWHLVWLSVIQLWHYLFIGTLNSLLTNMAGGDMARVSTYTNAFAFTQFGVLCAPWNGLLMDRLKQKYQKEARKTGSSTLAVALCSTVPSLALTSLLCLGFALCASVPILPLQYLTFILQVISRSFLYGSNAAFLTLAFPSEHFGKLFGLVMALSAVVSLLQFPIFTLIKGSLQNDPFYVNVMFMLAILLTFFHPFLVYRECRTWKESPSAIA
- Km ([1]; other: MOLT-4, 2 seconds): 115 ± 68 µM

B3: mENBT1 (slc43a3-encoded mouse ENBT1) (Mus musculus) (protein)
chain: MASKGLPLYLATLLTGLLECIGFAGVLFGWTSLLFVFKAENYFSEPCEQDCLLQSNVTGPSDLKAQDEKFSLIFTLASFMNNFMTFPTGYIFDRFKTTVARLIAIFFYTCATIIIAFTSANTAMLLFLAMPMLAVGGILFLITNLQIGNLFGKHRSTIITLYNGAFDSSSAVFLVIKLLYEQGISLRSSFIFMSVCSVWHIARTFLLMPKGHIPYPLPPNYSYGLCSRFGASKKENKAAEHETKELRSKECLPPKEENSGPEQQQQQEQQQQQQQQQEQHEQHSFRRCALSRRFILHVVWLSIIQLWHYLFIGTLNSLLTKLSGGDKVEVSAYTNAFAITQFFGVLCAPWNGLLMDRLKQKYQKAAKRTGSSSEAVALCSMVPSLALTSLLSLGFALCASIPVMQLQYATFILQVVSRSFLYGCNAAFLTLAFPSEHFGKLFGLVMALSAIVSLLQFPLFKVSPESNAVYVSMGLAIFLTLVHPFLVYRECRAEKTKSSVDA
notes: Oligonucleotides corresponding to the coding region of SLC43A3 (NM_001278201) or slc43a3 (NM_021398); expressed in transfected cells; HEK293-mslc43a3
- Km [1, 5]: 253 ± 39 µM
- Vmax [1, 5]: 144 ± 12 pmol/µL/s
- Km [3]: 86 ± 22 µM
- Vmax [3]: 62 ± 6 pmol/µL/s

B4: endogenous ENBT1 expressed in L1210 cells (Mus musculus) (protein)
chain: MASKGLPLYLATLLTGLLECIGFAGVLFGWTSLLFVFKAENYFSEPCEQDCLLQSNVTGPSDLKAQDEKFSLIFTLASFMNNFMTFPTGYIFDRFKTTVARLIAIFFYTCATIIIAFTSANTAMLLFLAMPMLAVGGILFLITNLQIGNLFGKHRSTIITLYNGAFDSSSAVFLVIKLLYEQGISLRSSFIFMSVCSVWHIARTFLLMPKGHIPYPLPPNYSYGLCSRFGASKKENKAAEHETKELRSKECLPPKEENSGPEQQQQQEQQQQQQQQQEQHEQHSFRRCALSRRFILHVVWLSIIQLWHYLFIGTLNSLLTKLSGGDKVEVSAYTNAFAITQFFGVLCAPWNGLLMDRLKQKYQKAAKRTGSSSEAVALCSMVPSLALTSLLSLGFALCASIPVMQLQYATFILQVVSRSFLYGCNAAFLTLAFPSEHFGKLFGLVMALSAIVSLLQFPLFKVSPESNAVYVSMGLAIFLTLVHPFLVYRECRAEKTKSSVDA
- Km ([1]; other: L1210, 2 seconds): 272 ± 91 µM
